US20240165259A1, “BIOORTHOGONAL REACTION SUITABLE FOR CLICK/UNCLICK APPLICATIONS” (DANA-FARBER CANCER INSTITUTE, INC., priority 2021, published 2024)

Biological target: T1, HaloTag protein (Rhodococcus rhodochrous, UniProt P0A3G2, A155T/A167V/A172T/A224E/C128F/C176G/D78G/E160K/E257K/H272N/K175M/K195N/L47V/L88M/N227D/S58T/T264A/Y273L/Y87F)
T1 construct: made in house; host or cells: E. coli (the text prints transformation into DH5a; BL21(DE3) was also purchased)
Experiment: HaloTag protein labeling, in-gel fluorescence (time- and concentration-dependent)
Type: biochemical
Conditions: HaloTag protein conjugated to alkyne 21′, 200 μM 22′, room temperature
Procedure: The viability of the reaction was evaluated both in vitro and in cells (FIG. 14A-FIG. 14B). Purified recombinant HaloTag protein (Los et al., ACS Chem. Biol. 3(6):373-382 (2008); Murrey et al., J. Am. Chem. Soc. 137(35):11461-11475 (2015)) was incubated with HaloTag linker-conjugated difluoropropargyl ether 21′ for 10 minutes at room temperature in pH 7.0 phosphate buffer to provide alkyne-conjugated protein. This protein was then treated with 200 μM TAMRA-N-methylhydroxylamine 22′ and analyzed at various time points by in-gel fluorescence.
Buffer A: pH 7.0, 50 mM NaH2PO4, 20 mM NaCl
A stock solution of HaloTag® protein (15.3 μL, 2.01 mg/mL in buffer A) was added to 29.7 μL of buffer A to prepare a HaloTag® working solution (solution A, 19.7 μM, 45 μL). […]
A solution of alkyne 21′ in DMSO (700 μM) was added to reactions C (0.22 μL) and D (1.10 μL). […] In-gel fluorescence was imaged with a Typhoon™ FLA 9500 (GE) at 532 nm with a photomultiplier tube (PMT) setting of 500 V. The experiment was carried out in triplicate (FIG. 21A-FIG. 21B). […]
A solution of alkyne 21′ in DMSO (700 μM) was added to reactions C (0.22 μL) and D (0.88 μL). […] In-gel fluorescence was imaged with a Typhoon™ FLA 9500 (GE) at 532 nm with a photomultiplier tube (PMT) setting of 500 V. The experiment was carried out in triplicate (FIG. 22A-FIG. 22B).

T1 sequence (P0A3G2 other isoform, or with tags, fused parts or gaps with the stated changes): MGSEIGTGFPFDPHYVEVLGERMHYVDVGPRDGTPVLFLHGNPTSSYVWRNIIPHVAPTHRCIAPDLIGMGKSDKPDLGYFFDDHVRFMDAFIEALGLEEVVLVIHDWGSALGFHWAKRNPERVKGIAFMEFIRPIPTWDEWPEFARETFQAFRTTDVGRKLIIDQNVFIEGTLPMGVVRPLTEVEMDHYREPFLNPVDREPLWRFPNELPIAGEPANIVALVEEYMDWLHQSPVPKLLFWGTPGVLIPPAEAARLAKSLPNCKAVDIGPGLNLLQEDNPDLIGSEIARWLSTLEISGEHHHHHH

SMILES: CN(O)CCOCCNC(=O)c1ccc2c(c1)C1(OC2=O)c2ccc(N(C)C)cc2Oc2cc(N(C)C)ccc21 [compound 13, 3′,6′-bis(dimethylamino)-N-(2-(2-(hydroxy(methyl)amino)ethoxy)ethyl)-3-oxo-3H-spiro[isobenzofuran-1,9′-xanthene]-6-carboxamide]
- time at which fluorophore-labeled protein was observed: ≤ 1 min
